Test [1] deals with H1703-FLIP(L) cells. Briefly: Annexin V-PE flow cytometry apoptosis test, H1703-FLIP(L) cells (TRAIL alone, molecule alone or combination). The class given is cell-based, Human. The following applies: 18 hours; for sensitization to TRAIL-induced apoptosis (percentage of apoptosis, annexin V): molecule at its most suitable concentration combined with TRAIL 100 ng/mL. Here is the method:
(§1) Cell Culture. H1703 (Human non-small lung cancer cell line) cells were grown in RPMI 1640 (LONZA) culture media supplemented with 10% fetal bovine serum and puromycine antibiotic (2 μg/ml) from Sigma-Aldrich. The cells were kept in a humidified atmosphere in an incubator at 37° C. and 5% CO2. H1703 cells were a kind gift from O. Micheau (INSERM, Dijon, France).
(§2) Flow Cytometry Analysis. The apoptotic cell death was confirmed by flow cytometry (cytoFLEX, Backman Coulter). After treatment of cells with TRAIL alone, c-FLIP inhibitor alone, or co-admninistration TRAIL/c-FLIP inhibitor, the cells were collected, washed and re-suspended in 1× Annexin binding buffer. Annexin-V-PE was added to cells, and left 20 minutes at room temperature in the dark. Flow cytometric analysis was carried out in the final step.
(§3) Sensitivity of the H1703 cells to TRAIL: The first goal was to verify that the H1703 cells are sensitive to TRAIL. To do so, the cells were treated with TRAIL at a concentration of 100 ng/mL for 18 hours and then the cells were washed and incubated with Annexin V-PE to evaluate the apoptosis level using flow cytometry. […] So, the Inventors applied a range of concentrations for each molecule to determine the appropriate dose that has no toxic effect on the cells when administered alone.
Combination Treatment of TRAIL with each one of the 9 Identified Molecules: Following the identification of the best concentration for each compound, HE1703 cells were treated with TRAIL (100 ng/mL) alone or with one of the 9 identified molecules alone or with a combination of TRAIL and one of the 9 identified molecules for 18 hours. The percentage of apoptosis was measured by flow cytometry using an annexin V test, as described above. The results obtained are presented on FIGS. 2(A, B and C).
On the technique in general: A flow cytometer gives signals particle by particle.

For another test, the target named is T1, cFLIP/FADD interaction (Homo sapiens, UniProt O15519).
T1 construct: made in house; host or cells: E. coli: Rosetta (pET24b, c-FLIP(s)) and DH5α (pMALC2, FADD)
Briefly: Pull down assay of FADD/c-FLIP interaction (MBP-trap column, Western blot). The following applies: c-FLIP(s) and FADD incubated 18 hours with molecule at different concentrations. The class given is binding. Here is the method: Transformation of Competent Bacteria. FLIP (s) and FADD genes were previously cloned and inserted in their respective plasmids pET24b and pMALC2, and provided as a kind gift from Pr. Richard Daniellou (ICOA, Orléans, France). Pet24b and Pmalc2 plasmids were mixed with their corresponding competent bacterial cells, Rosetta and DH5α cells respectively, and left on ice for 20 minutes. Heat-shocking steps were performed before adding LB medium and leaving cells to grow on 37° C. for 1 hour and then cells were spread on LB plates with appropriate antibiotics and incubated at 37° C. overnight.
Production of c-FLIP (s) and FADD proteins. Transformed competent cells were cultured in large amounts of LB growth at 37° C. and the expression of each protein was stimulated using 1M IPTG (Isopropyl β-D-1-thiogalactopyranoside) and cells were left to grow for 18 hours at 30° C. Cells were collected, centrifuged and resuspended in Tris/NaCl buffer (Tris 50 mM, NaCl 100 mM, pH 8.0) after which they were centrifuged at 6000 g, for 10 minutes at 4° C. Supernatant was removed and bacterial pellets were used for cell lysis and protein purification on Ni-NTA column and MBP-trap column for cFLIP(s) and FADD purification, respectively. The FLIP(s) is a His-tagged protein, and FADD is a MBP-tagged protein. The purified proteins were incubated with each molecule for 18 hours at +4° C. and then, the samples were passed again on MBP-trap columns.
Western Blot Analysis. The samples, purified and obtained after FADD/FLIP/compounds incubation, were run on 4-12% Bis-Tris polyacrylamide gels to evaluate the presence of FLIP and FADD bands.
Once purified, c-FLIP(s) and FADD were incubated for 18 hours with each one of the nine c-FLIP inhibitors at different concentrations. The samples were then passed on a MBP-trap column, which binds FADD (MBP-tagged protein). If cFLIP is still bound to FADD, then it is captured with FADD on the MBP column. Samples were then evaluated using a Western blot analysis by monitoring the disappearance of the c-FLIP band with increasing concentration of the c-FLIP inhibitor. Disappearance of the c-FLIP band in Western Blot corresponds to FADD-c-FLIP interaction inhibition.

The test system of test [2] is H1703-Mock cells. Briefly: Cleavage of caspase-8, caspase-3 and PARP in H1703-mock cells. Type of test: cell-based, Human. An excerpt: (§4) Reactivation of the Apoptotic Pathway by c-FLIP inhibitors combined with TRAIL: Cleavage of caspases is a marker of apoptosis pathway initiation. Thus, the present Inventors have studied the cleavage of caspase-8, of caspase-3 and of PARP (a caspase-3 substrate, which undergoes cleavage during apoptosis) in H1703-mock cells and in H1703-FLIP(L) cells, in the presence of TRAIL alone, in the presence of a c-FLIP inhibitor (molecules (1), (3), (4) and (9)), and of a combination of TRAIL and one of the c-FLIP inhibitors. The results obtained are presented on FIG. 4(A)-(B). […] However, no cleavage was observed when H1703-MOCK cells were treated with a c-FLIP inhibitor alone.

The subject of test [3] is H1703-FLIP(L) cells. Nature of the test: Cleavage of caspase-8, caspase-3 and PARP in H1703-FLIP(L) cells. The class given is cell-based, Human. The following applies: H1703 cells overexpressing FLIP.
Excerpt: as §4

The test system of test [4] is H1703-Mock cells. Briefly: Annexin V-PE flow cytometry apoptosis test, H1703-Mock cells. The class given is cell-based, Human. The following applies: TRAIL 100 ng/mL, 18 hours. Here is the method: as §1, §2, §3
[5] abbreviates: TRAIL combined with c-FLIP inhibitor.
[6] abbreviates: combination of TRAIL and c-FLIP inhibitor.

Entries after “also recorded” stand apart in the source; their conditions may differ.

`Cc1cc(/N=N/c2c(O)nc3ccccc3c2O)ccc1/N=N/c1ccc(C(=O)N(C)C)cc1` [Molecule (1)]: the “sensitization to TRAIL-induced apoptosis (percentage of apoptosis, annexin V)” value in the test with H1703-FLIP(L) cells [1] is on record as “most active”. On cFLIP/FADD interaction, the “inhibition of the interaction between FADD and c-FLIP (disappearance of the c-FLIP band)” value (from here on “inhibition”) is “inhibit the interaction between FADD and c-FLIP”. In addition, the “cleavage of caspase-8, caspase-3 and PARP” value (from here on “cleavage”) with H1703-Mock cells [2] (setting [5]) was “cleavage of caspase-8, caspase-3 and PARP”; with H1703-Mock cells [2] (c-FLIP inhibitor alone), “no cleavage”; in the test with H1703-FLIP(L) cells [3] (c-FLIP inhibitor alone) it was “no cleavage observed”; in the test on H1703-FLIP(L) cells [3] (setting [6]) it was “induce cleavage of caspase-8, caspase-3 and PARP”.

Turning to `N#Cc1cc(-c2ccccc2)[nH]c1-c1nccc2ccccc12` [Molecule (3)], the “sensitization to TRAIL-induced apoptosis (percentage of apoptosis, annexin V)” value in the test with H1703-FLIP(L) cells [1] is “most active”. Besides, at cFLIP/FADD interaction, the “inhibition” value is “inhibit the interaction between FADD and c-FLIP”. In addition, the “cleavage” value is “cleavage of caspase-8, caspase-3 and PARP” in the test with H1703-Mock cells [2] (setting [5]); “no cleavage” in the test on H1703-Mock cells [2] (c-FLIP inhibitor alone); “no cleavage observed” in the test on H1703-FLIP(L) cells [3] (c-FLIP inhibitor alone); “induce cleavage of caspase-8, caspase-3 and PARP” with H1703-FLIP(L) cells [3] (setting [6]).

Regarding `Cc1c2cnccc2c(C)c2c1c1ccccc1n2CCOC(=O)c1ccccc1` [Molecule (4)], the “sensitization to TRAIL-induced apoptosis (percentage of apoptosis, annexin V)” value with H1703-FLIP(L) cells [1] is “most active”. Further, the “inhibition” value on cFLIP/FADD interaction is “inhibit the interaction between FADD and c-FLIP”. In addition, the “cleavage” value in the test with H1703-Mock cells [2] (setting [5]) was “cleavage of caspase-8, caspase-3 and PARP”; in the test with H1703-Mock cells [2] (c-FLIP inhibitor alone), “no cleavage”; in the test with H1703-FLIP(L) cells [3] (c-FLIP inhibitor alone), “no cleavage observed”; in the test on H1703-FLIP(L) cells [3] (setting [6]), “induce cleavage of caspase-8, caspase-3 and PARP”.

For `NS(=O)(=O)c1ccc(NC(=S)NC(=O)c2ccco2)cc1` [Molecule (6)], the “inhibition” value on cFLIP/FADD interaction is “no effect”.

For `CC1=C(C)Cc2c(OC(=O)c3ccccc3)ccc(OC(=O)c3ccccc3)c2C1` [Molecule (7)], at cFLIP/FADD interaction, the “inhibition” value was “inhibit the interaction between FADD and c-FLIP”.

On to `Cc1cccc(Nc2sc(C(=O)c3cc4cc(Cl)ccc4o3)c(N)c2C#N)c1` [Molecule (9)], for which the “sensitization to TRAIL-induced apoptosis (percentage of apoptosis, annexin V)” value in the test with H1703-FLIP(L) cells [1] is listed as “most active”. Also, at cFLIP/FADD interaction, the “inhibition” value was “inhibit the interaction between FADD and c-FLIP”. For the same molecule, the “cleavage” value in the test with H1703-Mock cells [2] (setting [5]) is “cleavage of caspase-8, caspase-3 and PARP”; in the test on H1703-Mock cells [2] (c-FLIP inhibitor alone), “no cleavage”; with H1703-FLIP(L) cells [3] (c-FLIP inhibitor alone), “no cleavage observed”; with H1703-FLIP(L) cells [3] (setting [6]), “induce cleavage of caspase-8, caspase-3 and PARP”.

B1: TRAIL: death ligand TRAIL; KillerTRAIL (human recombinant BULK) purchased from Alexis Biochemicals (protein, UniProt P50591 39-281, looked up)
extracellular domain: TNELKQMQDKYSKSGIACFLKEDDSYWDPNDEESMNSPCWQVKWQLRQLVRKMILRTSEETISTVQEKQQNISPLVRERGPQRVAAHITGTRGRSNTLSSPNSKNEKALGRKINSWESSRSGHSFLSNLHLRNGELVIHEKGFYYIYSQTYFRFQEEIKENTKNDKQMVQYIYKYTSYPDPILLMKSARNSCWSKDAEYGLYSIYQGGIFELKENDRIFVSVTNEHLIDMDHEASFFGAFLVG
modifications: extracellular domain KillerTRAIL recombinant, Alexis
notes: death ligand TRAIL; KillerTRAIL (human recombinant BULK) purchased from Alexis Biochemicals
B1: the level of apoptosis entry in the test on H1703-Mock cells [4] was “more than 60%”. Besides, the “effect of TRAIL alone on apoptosis” value in the test with H1703-FLIP(L) cells [1] (TRAIL 100 ng/mL, H1703-FLIP(L) cells overexpressing c-FLIP) was “resistant to TRAIL; also recorded: no effect”. Further, the “cleavage” value with H1703-Mock cells [2] (TRAIL alone) was “cleavage of caspase-8, caspase-3 and PARP”; in the test on H1703-FLIP(L) cells [3] (TRAIL alone) it was “no cleavage observed”.

The values above are taken from US20190282563A1, “Selective c-FLIP Inhibitors as Anticancer Agents” (Centre National de la Recherche Scientifique, priority 2016, published 2019).
